Experimental data: ChEMBL document CHEMBL4028823, “Pharmacological property optimization for allosteric ligands: A medicinal chemistry perspective” (Bioorg Med Chem Lett, 2017)

Experiments:
[1] = biological target: T1, C-X-C chemokine receptor type 3 (Homo sapiens) (UniProt P49682); assay: Displacement of [3H]RAMX3 from CXCR3 (unknown origin) expressed in HEK cells after 1 hrs by microbeta scintillation counter; format: cell-based
T1 sequence (whole entry): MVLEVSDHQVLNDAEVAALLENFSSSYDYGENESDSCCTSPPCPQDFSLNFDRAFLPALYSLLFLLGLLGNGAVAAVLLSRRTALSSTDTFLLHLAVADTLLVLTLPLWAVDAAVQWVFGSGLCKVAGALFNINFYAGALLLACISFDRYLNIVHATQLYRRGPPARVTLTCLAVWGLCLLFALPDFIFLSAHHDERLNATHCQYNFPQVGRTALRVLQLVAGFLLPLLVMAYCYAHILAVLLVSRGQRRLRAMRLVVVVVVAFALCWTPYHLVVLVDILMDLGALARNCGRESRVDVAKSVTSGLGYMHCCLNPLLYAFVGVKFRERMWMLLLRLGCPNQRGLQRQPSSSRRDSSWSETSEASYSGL

[2] = biological target: T2, Muscarinic acetylcholine receptor M1 (Homo sapiens) (UniProt P11229); assay: Displacement of [3H]NMS from recombinant human mAChR1 expressed in Flp-In-CHO cells after 1 hr by microbeta scintillation counting analysis; format: cell-based
T2 sequence (whole entry): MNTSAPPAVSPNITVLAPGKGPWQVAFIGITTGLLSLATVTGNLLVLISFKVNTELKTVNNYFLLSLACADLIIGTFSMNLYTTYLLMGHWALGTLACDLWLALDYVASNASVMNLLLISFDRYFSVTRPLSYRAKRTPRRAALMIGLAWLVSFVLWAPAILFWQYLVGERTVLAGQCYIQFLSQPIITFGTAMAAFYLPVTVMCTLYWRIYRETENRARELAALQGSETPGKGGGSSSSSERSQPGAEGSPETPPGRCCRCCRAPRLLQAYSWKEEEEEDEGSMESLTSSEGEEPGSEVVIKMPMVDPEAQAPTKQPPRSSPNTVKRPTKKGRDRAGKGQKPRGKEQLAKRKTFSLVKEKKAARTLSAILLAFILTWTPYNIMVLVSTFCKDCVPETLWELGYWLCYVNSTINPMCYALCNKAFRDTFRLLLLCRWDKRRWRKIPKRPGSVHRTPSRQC

[3] = biological target: D(2) dopamine receptor (Homo sapiens) (UniProt P14416)
Description: Agonist activity at D2 long receptor (unknown origin) expressed in Flp-In-CHO cells assessed as change in transduction coefficient by measuring inhibition of forskolin-induced cAMP production measured after 5 mins in presence of coelenterazine by BRET assay

[4] = biological target: D(2) dopamine receptor (Homo sapiens) (UniProt P14416); remark: listed apart in the source
Description: Displacement of [3H]spiperone from D2 long receptor (unknown origin) expressed in Flp-In-CHO cell membranes assessed as transduction coefficient by measuring dissociation half life after 5 mins by liquid scintillation counter method

[5] = biological target: D(2) dopamine receptor (Homo sapiens) (UniProt P14416); remark: listed apart in the source
Description: Agonist activity at D2 long receptor (unknown origin) expressed in Flp-In-CHO cells assessed as change in transduction coefficient by measuring induction of ERK1/2 phosphorylation after 5 mins by Alphascreen assay

[6] = biological target: D(2) dopamine receptor (Homo sapiens) (UniProt P14416); remark: listed apart in the source
Description: Agonist activity at D2 long receptor (unknown origin) expressed in Flp-In-CHO cells co-expressing Rluc8-tagged GalphaoB assessed as change in transduction coefficient by measuring GalphaoB activation in presence of coelenterazine by BRET assay

[7] = biological target: D(2) dopamine receptor (Homo sapiens) (UniProt P14416); remark: listed apart in the source
Description: Agonist activity at D2 long receptor (unknown origin) expressed in Flp-In-CHO cells assessed as change in transduction coefficient by measuring cellular impedance measured immediately at 15 secs interval for 90 mins by xCELLigence assay

[8] = biological target: T3, Tyrosine-protein kinase BTK (Homo sapiens, UniProt Q06187); assay: Ratio of Kinact to ki for recombinant full length BTK (unknown origin)
[9] = biological target: T3, Tyrosine-protein kinase BTK; assay: Binding affinity to recombinant full length BTK (unknown origin) assessed as residence time by fluorescent tracer based TR-FRET assay
[10] = biological target: T2, Muscarinic acetylcholine receptor M1 (Homo sapiens); assay: Displacement of [3H]NMS from recombinant human mAChR1 expressed in CHO cells; format: cell-based
[11] = biological target: D(2) dopamine receptor (Homo sapiens) (UniProt P14416); remark: listed apart in the source
Description: Agonist activity at Rluc8-tagged D2 long receptor (unknown origin) expressed in Flp-In-CHO cells co-expressing YFP-tagged beta-arrestin2 assessed as change in transduction coefficient by measuring beta-arrestin2 recruitment measured after 5 mins by BRET assay

[12] = biological target: D(2) dopamine receptor (Homo sapiens) (UniProt P14416); remark: listed apart in the source
Description: Agonist activity at D2 long receptor (unknown origin) expressed in Flp-In-CHO cells co-expressing Rluc8-tagged Galphai1 assessed as change in transduction coefficient by measuring Galphai1 activation after 5 mins in presence of coelenterazine by BRET assay

[13] = biological target: Metabotropic glutamate receptor 5 (Homo sapiens) (UniProt P41594); assay: Negative allosteric modulation of mGlu5 receptor (unknown origin) expressed in HEK293A cells assessed as inhibition of glutamate induced-calcium mobilization by Fluo-4 AM dye based fluorescence assay; format: functional, cell-based
[14] = biological target: T4, Glycine receptor subunit alpha-1 (Homo sapiens, UniProt P23415); assay: Positive allosteric modulatory activity at recombinant human glycine alpha1 receptor expressed in HEK293 cells assessed as potentiation of glycine-induced response at -50 mV holding potential in presence of fructose by whole cell patch clamp method; format: cell-based
T4 sequence (P23415 whole entry): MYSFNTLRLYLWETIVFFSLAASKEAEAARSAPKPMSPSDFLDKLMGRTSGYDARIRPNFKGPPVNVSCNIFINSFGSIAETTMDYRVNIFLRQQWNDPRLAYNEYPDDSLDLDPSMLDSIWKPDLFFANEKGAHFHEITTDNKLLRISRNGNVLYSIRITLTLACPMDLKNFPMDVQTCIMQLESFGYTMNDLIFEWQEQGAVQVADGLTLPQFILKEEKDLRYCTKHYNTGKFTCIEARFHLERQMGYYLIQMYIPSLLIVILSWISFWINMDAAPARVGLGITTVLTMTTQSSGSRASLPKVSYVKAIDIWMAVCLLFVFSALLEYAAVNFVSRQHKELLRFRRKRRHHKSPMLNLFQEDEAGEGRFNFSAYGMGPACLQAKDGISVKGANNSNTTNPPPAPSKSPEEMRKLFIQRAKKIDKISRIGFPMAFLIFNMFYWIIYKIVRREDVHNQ

[15] = biological target: T5, Muscarinic acetylcholine receptor M2 (Homo sapiens, UniProt P08172); assay: Displacement of [3H]NMS from wild-type human mAChR2 expressed in Flp-in-CHO cell membranes in presence of mAChR2 agonist xanomeline after 90 mins by scintillation counting analysis
T5 sequence (P08172 whole entry): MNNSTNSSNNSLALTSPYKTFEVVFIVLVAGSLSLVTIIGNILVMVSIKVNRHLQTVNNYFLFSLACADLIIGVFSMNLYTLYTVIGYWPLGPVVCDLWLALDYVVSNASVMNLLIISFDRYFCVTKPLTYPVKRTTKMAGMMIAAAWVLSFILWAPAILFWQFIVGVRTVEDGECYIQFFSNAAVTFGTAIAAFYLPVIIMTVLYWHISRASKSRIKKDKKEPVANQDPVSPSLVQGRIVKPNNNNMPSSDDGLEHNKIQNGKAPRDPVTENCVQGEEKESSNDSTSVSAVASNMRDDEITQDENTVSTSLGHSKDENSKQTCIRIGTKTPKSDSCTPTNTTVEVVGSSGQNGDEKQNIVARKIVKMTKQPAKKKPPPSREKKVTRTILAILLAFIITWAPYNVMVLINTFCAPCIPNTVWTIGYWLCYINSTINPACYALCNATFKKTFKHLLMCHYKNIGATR

[16] = biological target: T5, Muscarinic acetylcholine receptor M2; assay: Displacement of [3H]NMS from wild-type human mAChR2 expressed in Flp-In-CHO cell membranes in presence of mAChR2 agonist acetylcholine after 90 mins by scintillation counting analysis

Sequence of D(2) dopamine receptor (Homo sapiens) (P14416 whole entry): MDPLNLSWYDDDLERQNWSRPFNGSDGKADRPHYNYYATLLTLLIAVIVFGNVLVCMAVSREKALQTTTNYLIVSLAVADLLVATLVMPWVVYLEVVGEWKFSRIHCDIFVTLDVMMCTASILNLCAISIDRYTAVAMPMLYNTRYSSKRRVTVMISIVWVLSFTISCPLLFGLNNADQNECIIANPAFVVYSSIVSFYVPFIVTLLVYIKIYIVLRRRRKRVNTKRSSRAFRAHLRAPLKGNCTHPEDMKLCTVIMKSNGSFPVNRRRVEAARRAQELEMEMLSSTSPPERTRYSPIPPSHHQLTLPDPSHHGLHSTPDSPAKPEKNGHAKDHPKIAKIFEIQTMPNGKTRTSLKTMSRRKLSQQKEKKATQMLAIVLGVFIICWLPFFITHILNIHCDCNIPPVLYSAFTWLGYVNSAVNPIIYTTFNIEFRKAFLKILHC
T3 sequence (Q06187 whole entry): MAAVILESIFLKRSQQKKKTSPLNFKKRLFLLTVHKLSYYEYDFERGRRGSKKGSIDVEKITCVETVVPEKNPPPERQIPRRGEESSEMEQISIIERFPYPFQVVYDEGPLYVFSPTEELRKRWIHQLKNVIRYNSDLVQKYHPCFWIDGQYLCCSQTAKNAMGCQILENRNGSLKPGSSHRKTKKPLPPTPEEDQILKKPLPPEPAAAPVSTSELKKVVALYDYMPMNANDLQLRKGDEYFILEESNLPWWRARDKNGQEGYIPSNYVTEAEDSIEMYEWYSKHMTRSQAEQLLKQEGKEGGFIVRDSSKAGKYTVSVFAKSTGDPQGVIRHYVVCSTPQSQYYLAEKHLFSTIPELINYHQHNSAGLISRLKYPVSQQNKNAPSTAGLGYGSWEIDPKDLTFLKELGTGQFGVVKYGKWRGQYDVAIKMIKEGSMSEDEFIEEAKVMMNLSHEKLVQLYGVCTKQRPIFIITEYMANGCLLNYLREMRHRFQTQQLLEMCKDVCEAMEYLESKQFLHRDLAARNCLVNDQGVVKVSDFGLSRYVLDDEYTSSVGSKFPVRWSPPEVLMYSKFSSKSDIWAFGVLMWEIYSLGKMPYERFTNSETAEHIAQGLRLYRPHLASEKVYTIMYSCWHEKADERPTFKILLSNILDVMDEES
Sequence of Metabotropic glutamate receptor 5 (Homo sapiens) (P41594 21-1212 limits assumed): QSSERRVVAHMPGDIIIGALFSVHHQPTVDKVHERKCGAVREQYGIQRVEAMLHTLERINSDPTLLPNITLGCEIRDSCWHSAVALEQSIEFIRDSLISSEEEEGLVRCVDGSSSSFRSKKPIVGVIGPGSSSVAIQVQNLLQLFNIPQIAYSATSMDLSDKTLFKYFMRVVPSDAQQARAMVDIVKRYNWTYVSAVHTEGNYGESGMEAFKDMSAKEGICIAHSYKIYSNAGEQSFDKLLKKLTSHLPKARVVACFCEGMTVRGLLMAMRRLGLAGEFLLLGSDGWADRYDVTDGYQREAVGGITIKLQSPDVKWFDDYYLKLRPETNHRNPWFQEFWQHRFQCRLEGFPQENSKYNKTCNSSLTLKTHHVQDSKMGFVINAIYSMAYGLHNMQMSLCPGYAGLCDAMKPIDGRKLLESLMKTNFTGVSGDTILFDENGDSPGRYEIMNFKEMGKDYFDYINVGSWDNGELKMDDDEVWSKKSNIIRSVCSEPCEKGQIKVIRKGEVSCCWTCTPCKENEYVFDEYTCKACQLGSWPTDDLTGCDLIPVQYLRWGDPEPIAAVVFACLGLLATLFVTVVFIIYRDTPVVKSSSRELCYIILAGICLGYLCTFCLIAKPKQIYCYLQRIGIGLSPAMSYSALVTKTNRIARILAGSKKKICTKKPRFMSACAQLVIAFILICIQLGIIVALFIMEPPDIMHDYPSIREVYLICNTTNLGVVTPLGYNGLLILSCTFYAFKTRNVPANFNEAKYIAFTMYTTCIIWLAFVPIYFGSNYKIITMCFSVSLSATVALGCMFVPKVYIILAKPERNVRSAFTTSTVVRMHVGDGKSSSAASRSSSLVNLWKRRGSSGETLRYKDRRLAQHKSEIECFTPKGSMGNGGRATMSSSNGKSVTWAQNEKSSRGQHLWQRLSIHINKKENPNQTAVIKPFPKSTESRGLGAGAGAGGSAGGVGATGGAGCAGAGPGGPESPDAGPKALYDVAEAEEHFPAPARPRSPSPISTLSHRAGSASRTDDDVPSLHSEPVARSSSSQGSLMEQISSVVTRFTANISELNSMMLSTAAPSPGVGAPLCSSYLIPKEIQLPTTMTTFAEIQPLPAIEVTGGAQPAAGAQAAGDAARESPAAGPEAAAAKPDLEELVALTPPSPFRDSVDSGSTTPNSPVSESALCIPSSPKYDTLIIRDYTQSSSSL

Q: How did the pKb [1] turn out when CCOc1cc(CC(=O)N(Cc2ccc(OC)c(B(O)O)c2)C(C)c2nc3ncccc3c(=O)n2-c2ccc(C)cc2)ccc1F (stereo not given) was run?
A: The pKb was 6.1.

Q: For Cc1c(Cc2ccc(-c3cnn(C)c3)nc2)cc2c(=O)n([C@H]3CCCC[C@@H]3O)cnc2c1C, which pKb [2] is on record?
A: Its pKb is 5.1.

Q: CN(C)C(=O)N[C@H]1CC[C@H](CCN2CCN(c3cccc(Cl)c3Cl)CC2)CC1 was tested. Which deltalog(Tau/KA) [3] did it give?
A: The deltalog(Tau/KA) was 0.2.

Q: What about the T1/2 [4] of the same molecule?
A: The T1/2 was 1.4 min.

Q: And the deltalog(Tau/KA) [5]?
A: The deltalog(Tau/KA) was -1.1.

Q: What about the deltalog(Tau/KA) [6] of the same molecule?
A: Its deltalog(Tau/KA) is 0.7.

Q: What about the deltalog(Tau/KA) [7] of the same molecule?
A: Its deltalog(Tau/KA) is 0.3.

Q: What does the source list for CC(C)(/C=C(\C#N)C(=O)N1CCC[C@@H]1Cn1nc(-c2ccc(Oc3ccccc3)cc2F)c2c(N)ncnc21)NC1COC1?
A: Ratio [8]: 0.4; TIME [9]: 167 h

Q: With COc1ccc(Cn2cc(C(=O)O)c(=O)c3ccccc32)cc1 as the molecule, how does the pKb [2] read?
A: The pKb was 4.8.

Q: Cn1cc(-c2ccc(Cc3cc4c(=O)n([C@H]5CCCC[C@@H]5O)cnc4c4ccccc34)cn2)cn1 was tested. Which pKb [2] did it give?
A: Its pKb is 5.8.

Q: With Cc1cc2ncn([C@H]3CCCC[C@@H]3O)c(=O)c2cc1Cc1ccc(-c2cnn(C)c2)nc1 as the molecule, how does the pKb [2] read?
A: Its pKb is 5.2.

Q: How did the pKb [10] turn out when O=C(O)c1cn(Cc2ccc(N=C=S)cc2)c2ccccc2c1=O was run?
A: Its pKb is 5.2.

Q: With Cn1cc(-c2ccc(Cc3ccc4ncn([C@H]5CCCC[C@@H]5O)c(=O)c4c3)cn2)cn1 as the molecule, how does the pKb [2] read?
A: The pKb was 4.3.

Q: Which deltalog(Tau/KA) [3] does the source give for O=c1[nH]c2cccc(N3CCN(Cc4cccc(-c5ccccc5)c4)CC3)c2o1 here?
A: Its deltalog(Tau/KA) is -0.2.

Q: What about the T1/2 [4] of the same molecule?
A: Its T1/2 is 86 min.

Q: What about the deltalog(Tau/KA) [5] of the same molecule?
A: Its deltalog(Tau/KA) is -1.2.

Q: And the deltalog(Tau/KA) [11]?
A: The deltalog(Tau/KA) was -0.6.

Q: And the deltalog(Tau/KA) [12]?
A: The deltalog(Tau/KA) was 1.4.

Q: What about the deltalog(Tau/KA) [6] of the same molecule?
A: Its deltalog(Tau/KA) is 0.3.

Q: What about the deltalog(Tau/KA) [7] of the same molecule?
A: The deltalog(Tau/KA) was -0.3.

Q: With C#CCOc1ccc(C(=O)c2ccc(OCCOc3cccc(C#Cc4csc(C)n4)c3)cc2)cc1 as the molecule, how does the pKb [13] read?
A: Its pKb is 6.1.

Q: O=C(CO)[C@@H](O)[C@H](O)[C@H](O)CO [FRUCTOSE] was tested. Which EC50 [14] did it give?
A: The EC50 was 12.6 µM.

Q: COc1nc2sc(C(=O)NC3CC3)c(N)c2c(C)c1Cl was tested. Which Ki [15] did it give?
A: The Ki was 0.158 µM.

Q: And the Ki [16]?
A: Its Ki is 3.16 µM.
